Results: PubChem BioAssay AID624092 (The Scripps Research Institute Molecular Screening Center, 2012)
Activity calls are given as the source filed them.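 The calls were made as follows: active = compounds blocking the TEM-1 enzyme with a half-maximal inhibitory concentration of 10 micromolar or lower; inactive = the rest.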

Target: Beta-lactamase TEM (Escherichia coli) (UniProt P62593)
Experiment: TEM-1 beta-lactamase inhibitor potency, late-stage follow-up, selectivity assay, biochemical, absorbance, probe candidates and analogs (AID 624092)
Conditions: purified TEM-1, nitrocefin hydrolysis, epi-absorbance

Sequence of Beta-lactamase TEM (Escherichia coli) (P62593 whole entry, looked up): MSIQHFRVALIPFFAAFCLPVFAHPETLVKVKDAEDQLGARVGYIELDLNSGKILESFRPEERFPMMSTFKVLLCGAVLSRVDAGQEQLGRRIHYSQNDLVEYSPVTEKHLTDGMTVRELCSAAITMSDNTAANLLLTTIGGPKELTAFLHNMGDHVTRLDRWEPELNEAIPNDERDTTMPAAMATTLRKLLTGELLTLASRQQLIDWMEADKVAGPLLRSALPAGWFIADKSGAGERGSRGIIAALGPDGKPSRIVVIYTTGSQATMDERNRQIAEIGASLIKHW

SMILES | IC50
CN1CCN(NC(=O)CN2C(=O)/C(=C/c3c(Cl)cccc3Cl)SC2=S)CC1 | > 60 µM (inactive)
CN1CCN(NC(=O)CN2C(=O)/C(=C/c3c(Cl)ccc(Cl)c3Cl)SC2=S)CC1 | > 60 µM (inactive)
